Results: ChEMBL document CHEMBL4229379, “Synthesis and structure-activity relationship of novel bisindole amidines active against MDR Gram-positive and Gram-negative bacteria” (Eur J Med Chem, 2018)
In brackets after ≈: the same amount, converted by molar mass.

Assays:
Staphylococcus aureus [1] = assay: Antibacterial activity against methicillin-sensitive Staphylococcus aureus 12-28 after 18 hrs by CLSI broth microdilution method; assay type: functional; settings: 12-28, 18 h
Staphylococcus aureus [2] = assay: Antibacterial activity against methicillin-resistant Staphylococcus aureus ATCC 33591 infected in ICR mouse assessed as mouse survival at 3 mg/kg, iv administered at 1 and 5 hrs post infection and measured on day 7 day post last dose (reference value: 0%); assay type: functional; settings: ATCC 33591, iv
Enterococcus faecium [3] = assay: Antibacterial activity against vancomycin-resistant Enterococcus faecium ATCC 700221 after 18 hrs by CLSI broth microdilution method; assay type: functional; settings: ATCC 700221, 18 h
Staphylococcus aureus [4] = assay: Antibacterial activity against methicillin-resistant Staphylococcus aureus ATCC 33591 infected in ICR mouse assessed as mouse survival at 3.5 mg/kg, iv administered at 1 and 5 hrs post infection and measured on day 7 day post last dose (reference value: 0%); assay type: functional; settings: ATCC 33591, iv
Klebsiella pneumoniae [5] = assay: Antibacterial activity against new delhi metallo-beta-lactamase-1 harboring Klebsiella pneumoniae 13-1 after 18 hrs by CLSI broth microdilution method; assay type: functional; settings: 13-1, 18 h
Escherichia coli [6] = assay: Antibacterial activity against extended-spectrum beta-lactamase harboring Escherichia coli 13-1 after 18 hrs by CLSI broth microdilution method; assay type: functional; settings: 13-1, 18 h
Enterococcus faecalis [7] = assay: Antibacterial activity against vancomycin-sensitive Enterococcus faecalis ATCC 29212 after 18 hrs by CLSI broth microdilution method; assay type: functional; settings: ATCC 29212, 18 h
Staphylococcus aureus [8] = assay: Antibacterial activity against methicillin-resistant Staphylococcus aureus ATCC 33591 infected in ICR mouse assessed as mouse survival at 4 mg/kg, iv administered at 1 and 5 hrs post infection and measured on day 7 day post last dose (reference value: 0%); assay type: functional; settings: ATCC 33591, iv
Serratia marcescens = assay: Antibacterial activity against Serratia marcescens ATCC 21074 after 18 hrs by CLSI broth microdilution method; assay type: functional; settings: ATCC 21074, 18 h
Klebsiella pneumoniae [9] = assay: Antibacterial activity against extended-spectrum beta-lactamase deficient Klebsiella pneumoniae 7 after 18 hrs by CLSI broth microdilution method; assay type: functional; settings: Klebsiella pneumoniae, 7, 18 h
Staphylococcus aureus [10] = assay: Antibacterial activity against methicillin-resistant Staphylococcus aureus 12-33 after 18 hrs by CLSI broth microdilution method; assay type: functional; settings: 12-33, 18 h
Escherichia coli [11] = assay: Antibacterial activity against extended-spectrum beta-lactamase deficient Escherichia coli ATCC 25922 after 18 hrs by CLSI broth microdilution method; assay type: functional; settings: ATCC 25922, 18 h
Citrobacter freundii = assay: Antibacterial activity against Citrobacter freundii ATCC 43864 after 18 hrs by CLSI broth microdilution method; assay type: functional; settings: ATCC 43864, 18 h
Staphylococcus aureus [12] = assay: Antibacterial activity against methicillin-resistant Staphylococcus aureus ATCC 33591 infected in ICR mouse assessed as mouse survival administered intravenously at 1 and 5 hrs post infection and measured on day 7 day post last dose (reference value: 0%); assay type: functional; settings: ATCC 33591, iv
Klebsiella pneumoniae [13] = assay: Antibacterial activity against new delhi metallo-beta-lactamase-1 harboring Klebsiella pneumoniae ATCC BAA-2146 after 18 hrs by CLSI broth microdilution method; assay type: functional; settings: ATCC BAA-2146, 18 h
Enterobacter cloacae [14] = assay: Antibacterial activity against Enterobacter cloacae ATCC 43560 after 18 hrs by CLSI broth microdilution method; assay type: functional; settings: ATCC 43560, 18 h
Escherichia coli [15] = assay: Antibacterial activity against extended-spectrum beta-lactamase deficient Escherichia coli 12-14 after 18 hrs by CLSI broth microdilution method; assay type: functional; settings: 12-14, 18 h
Staphylococcus aureus [16] = assay: Antibacterial activity against methicillin-sensitive Staphylococcus aureus ATCC 29213 after 18 hrs by CLSI broth microdilution method; assay type: functional; settings: ATCC 29213, 18 h
Enterococcus faecalis [17] = assay: Antibacterial activity against vancomycin-sensitive Enterococcus faecalis 12-5 after 18 hrs by CLSI broth microdilution method; assay type: functional; settings: 12-5, 18 h
Staphylococcus aureus [18] = assay: Antibacterial activity against methicillin-resistant Staphylococcus aureus ATCC 33591 infected in ICR mouse assessed as mouse survival at 2 mg/kg, iv administered at 1 and 5 hrs post infection and measured on day 7 day post last dose (reference value: 0%); assay type: functional; settings: ATCC 33591, iv
Klebsiella aerogenes [19] = assay: Antibacterial activity against carbapenem-resistant Enterobacter aerogenes 11-4 after 18 hrs by CLSI broth microdilution method; assay type: functional; settings: 11-4, 18 h
[20] = system: Acinetobacter calcoaceticus; assay: Antibacterial activity against carbapenem-resistant Acinetobacter calcoaceticus 12-6 after 18 hrs by CLSI broth microdilution method; assay type: functional; settings: 12-6, 18 h
Klebsiella pneumoniae [21] = assay: Antibacterial activity against carbapenem-resistant Klebsiella pneumoniae 12-11 after 18 hrs by CLSI broth microdilution method; assay type: functional; settings: 12-11, 18 h
Pseudomonas aeruginosa [22] = assay: Antibacterial activity against Pseudomonas aeruginosa PAO1 after 18 hrs by CLSI broth microdilution method; assay type: functional; settings: PAO1, 18 h
Klebsiella pneumoniae [23] = assay: Antibacterial activity against carbapenem-resistant Klebsiella pneumoniae 12-12 after 18 hrs by CLSI broth microdilution method; assay type: functional; settings: 12-12, 18 h
Klebsiella pneumoniae [24] = assay: Antibacterial activity against extended-spectrum beta-lactamase harboring Klebsiella pneumoniae 12-8 after 18 hrs by CLSI broth microdilution method; assay type: functional; settings: 12-8, 18 h
Enterococcus faecium [25] = assay: Antibacterial activity against vancomycin-sensitive Enterococcus faecium 12-3 after 18 hrs by CLSI broth microdilution method; assay type: functional; settings: 12-3, 18 h
[26] = system: Staphylococcus epidermidis; assay: Antibacterial activity against methicillin-sensitive Staphylococcus epidermidis ATCC 12228 after 18 hrs by CLSI broth microdilution method; assay type: functional; settings: ATCC 12228, 18 h
[27] = system: Staphylococcus epidermidis; assay: Antibacterial activity against methicillin-sensitive Staphylococcus epidermidis 12-6 after 18 hrs by CLSI broth microdilution method; assay type: functional; settings: 12-6, 18 h
[28] = system: Acinetobacter calcoaceticus; assay: Antibacterial activity against Acinetobacter calcoaceticus ATCC 19606 after 18 hrs by CLSI broth microdilution method; assay type: functional; settings: ATCC 19606, 18 h
Klebsiella aerogenes [29] = assay: Antibacterial activity against Enterobacter aerogenes ATCC 13048 after 18 hrs by CLSI broth microdilution method; assay type: functional; settings: ATCC 13048, 18 h
[30] = system: Stenotrophomonas maltophilia; assay: Antibacterial activity against Stenotrophomonas maltophilia ATCC 13636 after 18 hrs by CLSI broth microdilution method; assay type: functional; settings: ATCC 13636, 18 h
Klebsiella pneumoniae [31] = assay: Antibacterial activity against extended-spectrum beta-lactamase harboring Klebsiella pneumoniae ATCC 700603 after 18 hrs by CLSI broth microdilution method; assay type: functional; settings: Klebsiella pneumoniae, 700603, 18 h
Enterococcus faecium [32] = assay: Antibacterial activity against vancomycin-resistant Enterococcus faecium 12-1 after 18 hrs by CLSI broth microdilution method; assay type: functional; settings: 12-1, 18 h
[33] = Cytotoxicity against HEK293T cells assessed as reduction in cell viability after 48 hrs by MTS assay; assay type: cell-based, HEK-293T; settings: human
[34] = system: Staphylococcus epidermidis; assay: Antibacterial activity against methicillin-resistant Staphylococcus epidermidis 12-8 after 18 hrs by CLSI broth microdilution method; assay type: functional; settings: 12-8, 18 h
Pseudomonas aeruginosa [35] = assay: Antibacterial activity against Pseudomonas aeruginosa ATCC 27853 after 18 hrs by CLSI broth microdilution method; assay type: functional; settings: ATCC 27853, 18 h
Escherichia coli [36] = assay: Antibacterial activity against extended-spectrum beta-lactamase deficient Escherichia coli 1515 after 18 hrs by CLSI broth microdilution method; assay type: functional; settings: Escherichia coli, 1515, 18 h
Enterobacter cloacae [37] = assay: Antibacterial activity against new delhi metallo-beta-lactamase-1 harboring Enterobacter cloacae CDC1000654 after 18 hrs by CLSI broth microdilution method; assay type: functional; settings: CDC1000654, 18 h

`CN(C)C(=N)c1ccc2cc(-c3ccc(-c4cc5ccc(C(=N)N(C)C)cc5[nH]4)cc3)[nH]c2c1` gave an MIC (Staphylococcus aureus [1]) of 0.25 µg/mL (≈ 0.557 µM), a survival at 3 mg/kg (Staphylococcus aureus [2]) of 60% and an MIC (Enterococcus faecium [3]) of 1 µg/mL (≈ 2.23 µM). It also gave a survival at 3.5 mg/kg (Staphylococcus aureus [4]) of 80%, an MIC (Klebsiella pneumoniae [5]) of 4 µg/mL (≈ 8.92 µM) and an MIC (Escherichia coli [6]) of 2 µg/mL (≈ 4.46 µM). For the same compound, the MIC (Enterococcus faecalis [7]) was 1 µg/mL (≈ 2.23 µM), the survival at 4 mg/kg (Staphylococcus aureus [8]) was 90% and the MIC (Serratia marcescens) was 16 µg/mL (≈ 35.7 µM). It also gave an MIC (Klebsiella pneumoniae [9]) of 2 µg/mL (≈ 4.46 µM), an MIC (Staphylococcus aureus [10]) of 0.25 µg/mL (≈ 0.557 µM) and an MIC (Escherichia coli [11]) of 1 µg/mL (≈ 2.23 µM). It also gave an MIC (Citrobacter freundii) of 2 µg/mL (≈ 4.46 µM), an ED50 (Staphylococcus aureus [12]) of 2.62 mg/kg and an ED95 (Staphylococcus aureus [12]) of 4.62 mg/kg. For the same compound, the MIC (Klebsiella pneumoniae [13]) was 2 µg/mL (≈ 4.46 µM), the MIC (Enterobacter cloacae [14]) was 1 µg/mL (≈ 2.23 µM) and the MIC (Escherichia coli [15]) was 1 µg/mL (≈ 2.23 µM). The MIC (Staphylococcus aureus [16]) was 0.25 µg/mL (≈ 0.557 µM), the MIC (Enterococcus faecalis [17]) was 2 µg/mL (≈ 4.46 µM) and the survival at 2 mg/kg (Staphylococcus aureus [18]) was 20%. For the same compound, the MIC (Klebsiella aerogenes [19]) was 8 µg/mL (≈ 17.8 µM), the MIC [20] was 8 µg/mL (≈ 17.8 µM) and the MIC (Klebsiella pneumoniae [21]) was 8 µg/mL (≈ 17.8 µM). It also gave an MIC (Pseudomonas aeruginosa [22]) of 64 µg/mL (≈ 143 µM), an MIC (Klebsiella pneumoniae [23]) of 16 µg/mL (≈ 35.7 µM) and an MIC (Klebsiella pneumoniae [24]) of 4 µg/mL (≈ 8.92 µM). It also gave an MIC (Enterococcus faecium [25]) of 1 µg/mL (≈ 2.23 µM), an MIC [26] of 0.125 µg/mL (≈ 0.279 µM) and an MIC [27] of 0.125 µg/mL (≈ 0.279 µM). It also gave an MIC [28] of 8 µg/mL (≈ 17.8 µM), an MIC (Klebsiella aerogenes [29]) of 2 µg/mL (≈ 4.46 µM) and an MIC [30] of 8 µg/mL (≈ 17.8 µM). It also gave an MIC (Klebsiella pneumoniae [31]) of 4 µg/mL (≈ 8.92 µM), an MIC (Enterococcus faecium [32]) of 0.5 µg/mL (≈ 1.11 µM) and a CC50 at 48 h [33] of 4.13 µg/mL (≈ 9.21 µM). For the same compound, the MIC [34] was 0.25 µg/mL (≈ 0.557 µM), the MIC (Pseudomonas aeruginosa [35]) was 4 µg/mL (≈ 8.92 µM) and the MIC (Escherichia coli [36]) was 1 µg/mL (≈ 2.23 µM). The MIC (Enterobacter cloacae [37]) was 4 µg/mL (≈ 8.92 µM).
